Experimental data published in patent publication US20250333398A1, “MONOARYL AND HETARYL SUBSTITUTED INDAZOLES AND BENZIMIDAZOLES AS STING ANTAGONISTS AND THE USE THEREOF AS MEDICAMENT” (Boehringer Ingelheim International GmbH, priority 2024, published 2025).

What was measured:
[1] = test system: T1, wild-type (GRR) human STING cGAMP binding domain (residues 155-341); test: Differential Scanning Fluorimetry (DSF), stability of STING protein against thermal denaturation; details: 100 uM compound, 3 uM target protein
T1 construct: His-TEV-hSTING (WT); TEV protease cleavage site (N); made in house; host or cells: E. coli BL21 DE3
Protocol: Dye fluorescence is quenched in aqueous environment and increases upon association of the dye with the hydrophobic parts of the unfolding protein. […] The inflection point of the curve represents the “melting” temperature of the protein (Tm) which is calculated numerically using the Boltzmann equation.
Method: The thermal stability of the STING protein was measured using a specific expression construct of the cGAMP binding domain of wild-type (GRR) human STING comprising residues 155-341 and a N-terminal 8x His-tag in assay buffer containing 20 mM Tris, 150 mM NaCl at pH7.5.
The assay uses Hard-Shell®PCR Plates 384-Well CLR/WHT (Catalog #HSP3805, BIO-RAD), Microseal®‘B’ Adhesive Seals for PCR Plates (Catalog #MSB-1001, BIO-RAD) and was run on a CFX384 Real-Time System (Bio-Rad).
A DMSO stock solution of SYPRO orange (SIGMA S5692-500UL) was prepared.
Compound stock solutions (10 mM in DMSO) were diluted 1:2 in DMSO to an intermediate compound concentration of 5 mM and then further diluted 1:40 in assay buffer resulting in a compound concentration of 125 μM and 2.5% DMSO.
Fluorescent dye stock solution (5000×SYPRO Orange) was then mixed with target protein and buffer to a concentration of 15 uM Protein and 25×SYPRO Orange. 2 ul of this protein-dye-mixture was added to 8 ul compound solution. Final volume was 10 uL. 3-6 well positions were used as negative control (protein with 2% DMSO). The plates were prepared for duplicate measurement and centrifuged for 2 min at 1000 g. In the measurement, 160 cycles of 0.5° C. were used (temperature ramp 15 s/cycle, 15° C. to 95° C.).
Final Assay concentrations for compound characterization were as follows:
100 uM compound, 3 uM target protein, 5×SYPRO Orange, 2% DMSO in 10 ul. All dispensing steps were performed using a HamiltonStar pipetting robot (Hamilton).
Dissociation curves were processed in Bio-Rad CFX Manager. Peak type was set to “negative”.
Compound codes for screen were assigned in the plate layout.
Two replicates of TM measurements were averaged, and the standard deviation was calculated. In cases of SD>1.5° C. the measurement was repeated.
The melting point (Tm) obtained for STING protein alone was subtracted from T obtained for protein incubated with ligand to generate ΔTm values.
Protein production and purification: The protein used for the biophysical experiments was a recombinant human STING protein comprising its cytosolic ectodomain. A codon optimized DNA sequence (for expression in Escherichia coli) encoding amino acid residues 155 to 341 (Swiss Prot Q86WV6) of human STING (WT) was synthesized by GeneArt (Regensburg, Germany) and inserted into a pET17b E. coli expression vector. The protein construct encodes an N-terminal 8× His-tag followed by tobacco etch virus protease (TEV) cleavage site and the above STING gene sequence. The resulting protein sequence for the used STING variant is listed below:
For expression of recombinant human STING above construct was transformed into E. coli BL21 DE3 strain and grown in shake flasks in LB-medium at 37° C. Expression was induced by addition of isopropyl β-D-1-thiogalactopyranoside to a final concentration of 1 mM and cultures shaken overnight. Cell pellets were centrifuged and stored at −70° C. until further use. Protein was purified by cell thawing in lysis buffer (20 mM TRIS-HCl, pH 8, 300 mM NaCl, 2 mM mercaptoethanol, 20 mM imidazole, Complete Protease Inhibitor (Roche) and DNase (Roche)), followed by metal affinity purification using Ni-NTA resins and elution buffer consisting of 20 mM TRIS-HCl, pH 8, 300 mM NaCl, 2 mM mercaptoethanol, 300 mM imidazole and size exclusion chromatography in running buffer (20 mM TRIS-HCl, pH 8, 100 mM NaCl, 2 mM DTT). The peak fraction was collected and concentrated to 2.5 mg/mL.

human STING WT (R232) = target: T2, human STING WT (R232); test: Human STING HTRF binding assay (competitive, Cisbio 64BDSTGPEG); details: 6His tagged human STING WT R232, competition with STING ligand-d2
T2 construct: purchased Cisbio 64BDSTGPEG
Protocol: Binders to human STING WT (R232) were identified using a competitive HTRF assay format (Cisbio 64BDSTGPEG), which uses d2-labeled STING ligand, a 6His tagged human STING protein, and an anti 6His Cryptate-labeled antibody. Compounds compete with the STING ligand-d2 and thereby prevents FRET from occurring, which can be measured by an EnVision™ reader (PerkinElmer).
Assay method: Compounds were delivered as 10 mM DMSO solution, serially diluted by an Agilent Bravo Workstation and transferred to the 384 well assay plate (Perkin Elmer #6005359) using a Cybiwell dispenser. Typically, 8 concentrations were used with the highest concentration at 10 μM or 1 μM in the final assay volume followed by ^˜1:5 dilution steps. DMSO concentration was set to 1% in the final assay volume. The 384 well assay plate contained 20 test compounds and DMSO in column 23 and 24. A cGAMP standard dilution row was prepared according to the manufacturer and transferred to each assay plate. After transfer of compound solution or dilution buffer for negative (high) and positive (low) controls, 5 μl of the human STING protein (cyclic binding domain (residues 138-379) of the WT R232 human version, fused to a 6 His tag at the Nter part; 1:50 dilution in detection buffer) were dispensed to all wells except of the positive control, which received detection buffer only. Plates were the centrifuged for 20 sec at 1000 rpm. After that, 10 μl of Anti-6His-Cryptate antibody/Sting ligand-d2 mix was added to all wells using a Multidrop combi dispenser, followed by another 20 sec/1000 rpm centrifugation step. After an incubation of the plates for 180 min at room temperature, […] at […] (HTRF ratio) was measured using an Envison Reader (PerkinElmer)
Data evaluation and calculation: For data evaluation and calculation, HTRF ratios were calibrated using the cGAMP standard curve. After that, the measurement of the low control was set as 0% control and the measurement of the high control was set as 100% control. The IC50 values were calculated using the standard 4 parameter logistic regression formula. Calculation: [y=(a−d)/(1+(x/c)^b)+d], a=low value, d=high value; x=conc M; c=IC50 M; b=slope;

In the case of CC[P@](C)(=O)c1ccc(-c2nc(-c3cccc4nn(-c5cn(C6CC6)nc5OC)cc34)c(C3CC3)n2C)c(OC(F)(F)F)c1 [Example 14, 4-(5-cyclopropyl-2-{4-[(S)-ethyl(methyl)phosphoryl]-2-(trifluoromethoxy)phenyl}-1-methyl-1H-imidazol-4-yl)-2-(1-cyclopropyl-3-methoxy-1H-pyrazol-4-yl)-2H-indazole], the “DSF ΔTm (K)” value [1] is reported as 30 K and the IC50 (human STING WT (R232)) is reported as 6.49 nM.

CC[P@](C)(=O)c1ccc(-c2nc(-c3cccc4[nH]c(-c5cc(C(F)(F)F)n(C)n5)nc34)c(C3CC3)n2C)c(OC(F)(F)F)c1 [Example 18, 4-(5-cyclopropyl-2-{4-[(S)-ethyl(methyl)phosphoryl]-2-(trifluoromethoxy)phenyl}-1-methyl-1H-imidazol-4-yl)-2-[1-methyl-5-(trifluoromethyl)-1H-pyrazol-3-yl]-1H-1,3-benzodiazole] was tested, and the “DSF ΔTm (K)” value [1] was 34 K and the IC50 (human STING WT (R232)) was 26.5 nM.

For Cn1nc(-n2cc3c(-c4nc(-c5ccc(C(N)=O)cc5OC(F)(F)F)n(C)c4C4CC4)cccc3n2)cc1C(F)(F)F [Example 8, 4-(5-cyclopropyl-1-methyl-4-{2-[1-methyl-5-(trifluoromethyl)-1H-pyrazol-3-yl]-2H-indazol-4-yl}-1H-imidazol-2-yl)-3-(trifluoromethoxy)benzamide], the “DSF ΔTm (K)” value [1] was 32 K and the IC50 (human STING WT (R232)) was 85.3 nM.

COc1nn(C2CC2)cc1-n1cc2c(-c3nc(-c4ccc(C(=O)N(C)C)cc4OC(F)(F)F)n(C)c3C3CC3)cccc2n1 [Example 15, 4-{5-cyclopropyl-4-[2-(1-cyclopropyl-3-methoxy-1H-pyrazol-4-yl)-2H-indazol-4-yl]-1-methyl-1H-imidazol-2-yl}-N,N-dimethyl-3-(trifluoromethoxy)benzamide] was tested, and the “DSF ΔTm (K)” value [1] was 25 K and the IC50 (human STING WT (R232)) was 32.9 nM.
